Experimental data taken from a melting point compilation (Tetko et al.; mined from patent text by program, amines drawn as free bases though some values may be those of a salt).

melting point [°C] | Compound
44 to 45.5 | C/C=C(\Br)C(=O)Nc1cccc(F)c1
180 to 181 | CSc1ccc(-c2nc(SC)c(C#N)c(=O)n2-c2ccc(C(C)C)cc2)cc1
139 | CCOC(=O)C1=C(C)NC(C)=C(C(=O)OCCOC)C1c1cccc(Cl)c1Cl (stereo not drawn)
120 to 122 | CS(=O)(=O)Nc1ccc(C(=O)CC(=O)C2CC2)c(Cl)c1
123 to 128 | O=S(=O)(c1ccccc1)c1ccc2c(c1)OCCN2C1CCNC1 (stereo not drawn)
111 to 112 | COc1ccc(C(=O)N2CCN(Cc3ccccc3)c3ccccc32)cc1OC
84 | O=C(NC(CS)Cc1ccccc1)N1CCOCC1 (single isomer, unassigned; (+))
159 to 160 | O=S(=O)(C(=CNc1ccccn1)c1ccccc1)c1ccccc1
154 to 157 | Nc1cc(Cl)nc(SC/C=C/C(=O)N2CCOCC2)n1
65 to 67 | CCCCCCOc1ccc2[nH]c(C)c(CC(=O)O)c2c1
198 | CCCC1=C(C(=O)OCC)C(c2ccnc3ccccc23)c2c[nH]nc2N1 (stereo not drawn)
103 to 104 | CCOC(=O)C1=NN(c2cccc(Cl)c2)C(c2ccccc2)CO1 (stereo not drawn)
159 to 160 | C#CCN1N=C(c2ccc(Cl)cc2)CN(C)C1=O
122 to 123 | CC(=O)N1CC2OC(C3OCCO3)(C1)c1ccccc12 (stereo not drawn)
119 to 121 | CN(C)C(=O)CC(C)(C)C(=O)O
133 to 135 | COc1ccc2c(c1)C(CCNC(C)=O)=C(Cc1ccccc1)C2
105 to 107 | O=C(O)CP(=O)(O)C[C@H](Cc1ccccc1)NC(=O)c1ccccc1
123 to 125 | CC(C(=O)OCN1C(=O)CCC(N2C(=O)c3ccccc3C2=O)C1=O)N(C)C(=O)OC(C)(C)C (stereo not drawn)
239 to 242 | COc1cc(C)nc2nc(S(=O)(=O)Nc3c(Cl)ccc(C)c3Cl)nn12
154 to 155 | O=C1Nc2ccc(Cl)cc2C(OCC2CC2)(C(F)(F)F)CN1C1CC1 (stereo not drawn)
142 to 143 | OCC(O)Cc1nccn1CCCCc1ccc(OCc2coc(/C=C/c3ccc(C(F)(F)F)cc3)n2)cc1 (stereo not drawn)
149 | COc1ccc(N2CCOCC2)c2sc(NC(=O)N3C[C@@H]4CC[C@H]3C4)nc12
111 to 113 | COc1cc(C(O)(C(F)(F)F)C(F)(F)F)cc(C)c1OCC(=O)O
218 to 223 | O=C(Nc1ccc(Oc2ccc(Br)cc2)nc1)c1ccccc1C(c1ccc(O)cc1)c1ccc(O)cc1
202 to 203 | CC1(C)Oc2ccc(Cl)cc2[C@@H](N2CCCC2=O)[C@@H]1O (relative stereo)

melting point [°C] | Compound
175 to 176 | CN1C(=O)C2CC(c3ccccc3)(C2)C1=O
135 to 137 | Fc1ccc(OCCCc2c[nH]cn2)cc1
199 to 200 | COCc1cnc2c(NC(=O)c3c(Cl)cccc3Cl)cccc2c1CO
215 to 216 | Brc1cccc2ncn3ccnc3c12
158 to 161 | CC(C)CN1CCC2(CC1)CSC1=C(O2)c2ccccc2C(=O)C1=O
138 to 140 | CC(=O)c1cc(Cl)c(N=C=O)c(Cl)c1
126 to 129 | O=C(OC(=O)c1ccccc1S(=O)(=O)O)c1ccccc1S(=O)(=O)O
193 | COc1ccc2c(CC(=O)O)c(C(=O)c3ccc(Cl)cc3)[nH]c2c1
118 to 120 | O=[N+]([O-])CS(=O)(=O)c1ccc(Oc2ccccc2)cc1
102 | O=C=Nc1cc(NS(=O)(=O)CCl)c(Cl)cc1F
188 to 189 | Cc1c(NC(=O)CC(C)(C)C)cc2c(c1C)OC(C)(C)C2c1ccccc1C(C)C (stereo not drawn)
62 to 64 | C=C(C)c1ccc2c(c1)Cc1ccccc1O2
83 to 85 | CC(=O)SCC(Cc1ccccc1)C(=O)NC(C)(C)C(=O)OCc1ccccc1 (stereo not drawn)
154 | O=S1(=O)c2cccc3cccc(c23)N1CCN1CCC(Cc2cc3cc(F)ccc3[nH]2)CC1
107 to 109 | CCCCN(C=Nc1nnnc2c1ncn2C1CC(O)C(CO)O1)CCCC (stereo not drawn)
108 to 110 | COC(=O)[C@@H]1CCCN1C(=O)c1ccc(OC)c(O)c1[N+](=O)[O-]
73 to 75 | C=CCNc1ccc(N(CCO)CCO)cc1[N+](=O)[O-]
149 | CCOC(=S)NCCN1CCC(Nc2nc3ccccc3n2Cc2ccc(F)cc2)CC1
163 to 165 | CC(=O)OC1CC2=CCC3C4CCCC4(C)CCC3C2(C)C(OC(C)=O)C1 (stereo not drawn)
118 to 119 | CCCCCCCCCC(=O)c1ccc(O)c(C(=O)O)c1
178 to 179 | CCS(=O)(=O)c1ccc(C(CC2CCCC2)C(=O)Nc2nccs2)cc1 (stereo not drawn)
121 to 122 | CC(C)(OCc1nn(Cc2ccccc2)c2ccccc12)C(=O)Nc1ccccn1
150 to 153 | COc1ccc(NC(=O)c2ccc(-c3ccc(-c4noc(C)n4)cc3C)cc2)cc1OCCN
237 to 238 | O=C(O)CCc1oc(NC2CCCCC2)nc1-c1ccc(Cl)cc1
136 to 139 | CS(=O)(=O)Nc1cccc(Nc2nc(Oc3ccc(F)cc3)c3nc[nH]c3n2)c1

melting point [°C] | Compound
67 to 72 | COC(=O)CCCCC(C)C1CCC2C3CCC4CC(OC=O)CCC4(C)C3CC(OC=O)C12C (stereo not drawn)
180 to 182 | CN1CCN(c2cccc(CS(=O)(=O)c3ccccc3)c2[N+](=O)[O-])CC1
199 to 201 | CCn1cc(C(=O)NC2CC2c2ccccc2)c(=O)c2cnc(N3CCCC3)nc21 (stereo not drawn)
271 to 273 | CS(=O)(=O)c1ccc(-c2c(-c3ccc(O)cc3)[nH]c3ccc(Cl)cc23)cc1
142 | CC1(C)C(C(=O)O)C1C(O)C(F)(Cl)Cl (stereo not drawn)
171 to 174 | O=C(O)CC(CC(=O)Nc1cc(O)c(Cl)cc1F)C(F)(F)F (stereo not drawn)
55 | Cc1cc2ccccc2c(Cl)c1C
188 to 189 | O=C1OC2(CCC2)C(O)=C1c1ccccc1
154 to 155 | CC(=O)N1CCC(OCCOc2ccc(C(N)=O)cc2)CC1
148 to 149 | CSc1[nH]c(-c2ccccc2C)cc1C#N
168 to 179 | CC(C)[C@]1(CCc2ccc(O)cc2)CC(O)=C(Sc2cc(C(C)(C)C)cc3sc(N)nc23)C(=O)O1
137 to 140 | CNC(=NC#N)NCCSCc1cccc(NC(N)=NCC(F)(F)F)n1
76 to 77 | COC(=O)CCC(=NO)c1ccccc1
146 to 148 | NS(=O)(=O)c1ccc(S(=O)(=O)NCc2cccs2)s1
109 to 111 | CC(C)(C)OC(=O)N1CCC[C@H]1C(=O)O[C@H]1CO[C@H]2[C@H]1OC[C@H]2O[N+](=O)[O-]
135 to 136 | CCc1[nH]n(C2CCCC2)c2nc(-c3ccccc3OC)nc(=O)c1-2
124 | Cc1ccc(N)c(C(=S)NCC2CC2)c1
215 to 216 | CSc1nc(C(F)(F)F)c(Br)c(=O)[nH]1
67 to 72 | CCCCCCCCCCCCCCCCCCOc1cn(-c2ccccc2)c(CO)cc1=O
53.5 to 55 | N#CCCC(=O)c1ccncc1
137 to 139 | O=C1c2cc(OC(F)F)ccc2CN1c1ccc2c(c1)CCC2
206 | Cc1cc(C#Cc2cnn3c(C(F)(F)F)cc(-c4ccc(C(F)(F)F)cc4)nc23)ccn1
267 to 269 | O=C1C(=O)c2ccccc2C2=C1SCC1(CCN(C(=O)c3ccncc3)CC1)O2
127 to 128 | O=C(O)CCCc1ccc2sc3ccccc3c2c1
74 to 76 | COC(=O)c1c(-c2ccc(C(F)(F)F)cc2)ccc2ccccc12

melting point [°C] | Compound
213 to 214 | CC(C)Cn1c(CNC(=O)OC(C)(C)C)c(-c2ccccc2)c2cc(-c3nc(C(=O)O)cs3)ccc2c1=O
170 to 172 | c1ccc(N(Cc2cccc3ccccc23)c2ccccc2)cc1
173 to 175 | CC(=O)c1cccc(-c2ccc3nc(-c4ccc(Cl)cc4)cn3c2)c1
54 to 56 | CCC1(CC)NC(C)(C)CN(c2ccccc2)C1=O
86 to 88 | CCCC(=O)c1ccc(=O)[nH]c1CCC
218 to 220 | O=C(Nc1cc2ncc(CN3CCCC3)cc2cc1F)c1ccc(-c2ccc(Cl)cc2)cc1
163 to 164 | Cc1cc(-n2nc(C#N)cc2-c2ccc(S(C)(=O)=O)cc2)ccc1Cl
248 to 250 | Cc1cc(C)c(C2C(=O)N3CCOCCN3C2=O)c(C)c1
70 | CCC(O)c1cc2ccccc2cc1CO (stereo not drawn)
70.5 to 72 | CCCCCCCCCCCCOc1ccc(NC(=O)C(=O)OCC)cc1
118 to 120 | COc1ccc(CNN2C(=O)CC(C)c3cnc(SC)nc32)cc1Cl (stereo not drawn)
198 to 201 | O=C(O)c1cccc(C=CC(=O)c2ccccc2)c1
93 to 95 | OCCOc1ccc2cccnc2c1
160 to 162 | Cn1ncnc1COc1nc2c(cc1-c1cccs1)nnn2-c1ccccc1F
206 to 207 | CCOC(=O)C1C=Nc2c(ccc3cc(C(=O)N(C)Cc4ccc(F)cc4)cnc23)C1=O (stereo not drawn)
200 to 205 | Nc1ncnc2c1ncn2OC[C@@H](CO)OCP(=O)(O)O
147 to 149 | COc1cc(O)c2c(c1)OC(C(C)(C)C=C1N=C(c3ccccc3)OC1=O)CC2=O (stereo not drawn)
255 to 256 | O=C(Nc1cc(Cl)cc(Cl)c1)c1ccc(Cl)cc1O
215 to 220 | O=C1c2ccccc2C(=O)N1Cc1cc2ccccc2[nH]1
72 to 73 | O=C(Cl)c1c(Oc2ccccc2)cccc1Oc1ccccc1
245 to 247 | Cn1cc(C2=C(c3cn(CCCNc4ccc([N+](=O)[O-])cn4)c4ccccc34)C(=O)NC2=O)c2ccccc21
153 to 155 | CCCCC(=O)Nc1ccc(C(=O)CCC(=O)O)cc1
207 to 212 | CN1C(=O)CC[C@]2(C)c3ccc(-c4nc5ccccc5s4)cc3CC[C@@H]12

Compound | melting point [°C]
COc1ccc(-c2ccsc2)c2c1c(CCN(C)C)cn2C | 120 to 122
COC(=O)C1CN(C)CCC1c1ccc(Cl)c(Cl)c1 (stereo not drawn) | 70 to 75
CCc1cc2c(s1)-n1c(nnc1CNC(=O)Nc1cccc(C)c1)CN=C2c1ccccc1Cl | 260 to 262
O=C(O)c1cc2cc(F)ccc2n1Cc1ccncc1 | 282 to 283
O=C(NC1N=C(c2ccccc2)c2oc3ccccc3c2NC1=O)OCc1ccccc1 (stereo not drawn) | > 260
